From US4996201A, “4-(N-substituted amino)-2-butynyl-1-carbamates and thiocarbamates and derivatives thereof as centrally acting muscarinic agents” (Warner-Lambert Co., priority 1989, dated 1991)
Counter-ions that a name gives are not always drawn.

How the values were obtained:
[1] = in vivo; cited from earlier work
[2] = target: central muscarinic agonist site; test: Receptor [3H]Cis-methyldioxalane Assay (RCMD), central muscarinic agonist site binding; conditions: rat cerebral cortex tissue; radiolabeled cis-methyldioxalane; head also prints (0.1 μM)
[3] = test system: central muscarinic antagonist site; type: binding; conditions: rat cerebral cortex tissue; radiolabeled quinuclidinyl benzilate; (1 μM); read-out: RQNB IC50
[4] = test system: human SK-N-SH cells bearing muscarinic binding sites; test: Muscarinic Induced Inositol Phosphate Accumulation Assay (MIPA); type: cell-based; conditions: inositol phosphate production, concentration for response 50% of the maximum, read-out: Agonist Response ED50
Method: In the Muscarinic Induced Inositol Phosphate Accumulation Assay (MIPA) human SK-N-SH cells bearing muscarinic binding sites are incubated with the test compound. The production of inositol phosphates is then measured. Stimulation of inositol phosphate turnover reflects the degree of muscarinic agonist activity of the test compound. The concentration of test compound required to produce a response 50% of the maximum is then determined.

[5] = test system: laboratory rats; test: Scopolamine Induced Swimming Assay (SIS); type: in vivo, rat; conditions: for reversal of scopolamine-induced swimming hyperactivity: rats given scopolamine, result in words
Method: In the Scopolamine Induced Swimming Assay (SIS) the ability of a test compound to reverse the hyperactive swimming behavior of laboratory rats given scopolamine is determined. In the assay, untreated rats generally swim between 20 to 30 meters during a five-minute test period. […] The effect of scopolamine is centrally mediated. Thus, the ability of the test compound to reverse the hyperactive swimming behavior induced by scopolamine is a measure of the central cholinergic activity of the compound.

[6] = test system: aged humans and nonhuman primates; conditions: acetylcholinesterase inhibitor; cited from earlier work
[7] = test system: mice; conditions: cited from earlier work
[8] = in vivo; cited from earlier work; remark: listed apart in the source

In the case of Nc1ccncc1N [3,4-diaminopyridine], the age-related cognitive deficits [1] is given as “ameliorate age-related cognitive deficits”.
Molecule COC(=O)N(C)CC#CCN1CCCC1 [Example 1, Methyl[methyl4-(1-pyrrolidinyl]-2-butynyl]]-carbamate, ethanedioate (1:1) (salt)] has an IC50 [2] of 0.0143 µM, an IC50 [3] of 2.66 µM and an EC50 [4] of 10 µM. The minimal effective dose ([5]; Rattus norvegicus, Minimal Effective Dose to reverse scopolamine (0.1 mg/kg) induced hyperactive swimming in rats, read-out: Reversal of SIS Hyperactivity MED) was 10 mg/kg.
Work on COC(=O)N(C)CC#CCN1CCCCC1 [Example 1f, Methyl methyl[4-(1-piperidinyl]-2-butynyl-carbamate, ethanedioate (1:1) (salt)] yielded an IC50 [2] of 1.57 µM and an IC50 [3] of 4.99 µM.
COC(=O)N(C)CC#CCN1CCCCCC1 [Example 1g, Methyl[4-(hexahydro-1H-azepin-1-yl]-2-butynyl]methylcarbamate, ethanedioate (1:1) (salt)] gave an IC50 [2] of 0.958 µM and an IC50 [3] of 1.95 µM.
Molecule COC(=O)N(C)CC#CCN(C)C [Example 2, Methyl[4-(dimethylamino)-2-butynyl]methyl-carbamate, ethanedioate (1:1)(salt)] has an IC50 [2] of 0.063 µM, an IC50 [3] of 46.6 µM and an EC50 [4] of 59.2 µM.
For COC(=O)C1=CCCN(C)C1 [arecoline], the “reversal of scopolamine-induced swimming hyperactivity” value [5] was “can be reversed”.
In the case of CNC(=O)Oc1ccc2c(c1)[C@]1(C)CCN(C)[C@@H]1N2C [physostigmine], the “reversal of scopolamine-induced swimming hyperactivity” value [5] is listed as “can be reversed” and the memory [6] is listed as “improved memory”.
For CN1[C@@H]2C[C@@H](OC(=O)[C@H](CO)c3ccccc3)C[C@H]1[C@@H]1O[C@@H]12 [scopolamine], the “swimming distance increase above baseline values” ([5]; scopolamine 0.1 mg/kg, five-minute test period, rats) was 75-125%.
For C(#CCN1CCCC1)CN1CCCC1 [tremorine, 1,4-dipyrrolidino-2-butyne], the “duration of profound tremor of the head and limbs” value [7] is given as “more than one” and the “conversion to active metabolite oxotremorine” value [8] is given as “converted to an active metabolite, oxotremorine”.
